Measurements from patent US9388215B2, “Compositions and methods of using islet neogenesis peptides and analogs thereof” (SHENZHEN HIGHTIDE BIOPHARMACEUTICAL, LTD., priority 2013, dated 2016).

What was measured:
[1] = Peptide stability in culture medium (F-12K, 37° C., HPLC); format: physicochemical; conditions: F-12K medium, 0.25 mg/mL, 0-72 hours, FIG. 2, FIG. 11
Description: To determine the stability of peptides in culture medium, a certain amount of selected peptides was accurately weighed and dissolved in distilled water to 5 mg/mL as a stock solution. The stock solution was diluted to 0.25 mg/mL with F-12K medium (Gibco-BRL, Gaithersburg, Md., USA) as working solution. A volume of 100 μL of each working solution was transferred into individual sample vials. The sample vials were incubated in a 37° C. incubator for 0, 24, 48 and 72 hours before being analyzed and quantitated by HPLC. […]

[2] = system: STZ induced diabetic mice; test: Efficacy in streptozotocin (STZ) induced diabetic mice model; format: in vivo, mouse; conditions: 5 mg/kg or 25 mg/kg for 20 days
Description: After acclimatization in the animal facility for one week, 6-8 weeks old C57BL/6J mice were administered low dose STZ at 40 mg/kg in citrate buffer for 5 consecutive days to establish a T1D animal model. Mice with blood glucose greater than 16.7 mmol/L at 5 days post last STZ injection were included in the study. These mice were then treated with INGAP-PP (Peptide 1) or Peptide 7 at the doses of 5 mg/kg (2.5 mg/kg, bid (twice a day)) or 25 mg/kg (12.5 mg/kg, bid) for 20 days before sacrifices. Two additional groups of diabetic mice were administered either saline or a peptide (Peptide 3) composed of a scrambled sequence of amino acids from Peptide 1 as control groups. Blood glucose and insulin levels were measured, and 20 days post the last dosing of test agents, an oral glucose tolerance test (OGTT) was performed in 6 hour fasted animals to determine the effect of Peptide 1 and Peptide 7. Blood samples obtained from the tail cut for glucose determination were detected with an ACCU-CHEK™ glucometer (Roche, ACCU-CHEK® Active), and insulin levels were determined with Rat/Mouse Insulin Elisa kit (Millipore, Billerica, Mass. USA). For the OGTT, after the measurement of the basal glucose concentration (T=−30 min), mice received an oral glucose challenge at 2 g/kg and glucose values were determined by glucometer at 0, 15, 30, 60, 90 and 120 min.

normal C57BL/6J mice = test: Induction of small β-cell clusters in normal C57BL/6J mice (islet size distribution); format: in vivo, mouse
Description: After a 1-week acclimation, C57BL/6J female mice were randomly divided into 4 groups. The two control groups received either 10 mL/kg sterile normal saline (n=4) or scrambled peptide (Peptide 3, 25 mg/kg) (n=5) via subcutaneous injection for 10 days. The other two groups received INGAP-PP (Peptide 1) or INGAP-PP analog Peptide 7 at a dose of 25 mg/kg per day respectively (n=7 per group) for the same period. Body weight and 6 hour fasting blood glucose were measured before treatment and after the last dosing of treatment. Plasma and pancreatic insulin were also measured at the end of the study. On day 11, the pancreas was removed from each animal, cleared of fat and lymph nodes, weighed, and fixed in 10% neutral buffered formalin (NBF) for no longer than 24 hours before processing for morphometric analysis.
Immunohistochemistry analysis was used to determine pancreatic islet size distribution.

Substance | stability in culture medium [1] | effect on body weight or pancreas weight [2] | number of islets, islet size (Log [μm^2]) ranging from 2.1 to 0.7 (normal C57BL/6J mice; normal female C57BL/6J mice, 25 mg/kg per day, 10 days, versus naive/control group, FIG. 7) | effect on body weight, blood glucose, plasma insulin, pancreas insulin, pancreas weight (normal C57BL/6J mice; normal mice, 25 mg/kg per day sc for 10 days, compared to saline group)
Ac-IGLHDPSHGTLPNGS-OH [Peptide 16, Ac-IGLHDPSHGTLPNGS-OH] | significantly more stable than INGAP-PP peptide in culture medium | – | – | –
H-IGLHDPSHGTLPNGS-OH [Peptide 1, H-IGLHDPSHGTLPNGS-OH, reference compound] | – | did not affect body weight or pancreas weight | only observed in islet size of 2.1 | did not affect body weight, blood glucose, plasma insulin, pancreas insulin, or pancreas weight
